system: human PBMC cytotoxicity, % cell control; experiment: viability of primary blood mononuclear cells – cell-based, primary PBMCs, TC50, cytotoxicity control for HIV-1 antiviral lead project, dose response (AID 504530)

Compared with `Cc1c2c(=O)n(-c3nc4ccccc4s3)nc-2cc(O)n1CCc1ccc(O)cc1`, `COc1ccc(CCn2c(O)cc3nn(-c4nc5ccccc5s4)c(=O)c-3c2C)cc1` is 28-fold higher in CC50: 2.11 µM for the first, 60 µM for the second.

Going from `Cc1c2c(=O)n(-c3nc4ccccc4s3)nc-2cc(O)n1CCC(C)C` to `Cc1c2c(=O)n(-c3nc4ccccc4s3)nc-2cc(O)n1CCc1cccs1`, the CC50 rises from 41.1 µM to 71.2 µM (1.7-fold).

`Cc1c2c(=O)n(-c3nc4ccccc4s3)nc-2cc(O)n1Cc1cccnc1` and `Cc1c2c(=O)n(-c3nc4ccccc4s3)nc-2cc(O)n1Cc1ccncc1` are within 1.5-fold of each other in CC50: 2.15 µM for the first, 2.4 µM for the second.

`COc1ccc(Cn2c(O)cc3nn(-c4nc5ccccc5s4)c(=O)c-3c2C)cc1` and `Cc1c2c(=O)n(-c3nc4ccccc4s3)nc-2cc(O)n1Cc1ccc(F)cc1` are within 1.5-fold of each other in CC50: 19.2 µM for the first, 18.7 µM for the second.

Going from `COc1ccccc1Cn1c(O)cc2nn(-c3nc4ccccc4s3)c(=O)c-2c1C` to `Cc1c2c(=O)n(-c3nc4ccccc4s3)nc-2cc(O)n1Cc1ccccc1Cl`, the CC50 rises from 22 µM to 38.9 µM (1.8-fold).

Going from `Cc1c2c(=O)n(-c3nc4ccccc4s3)nc-2cc(O)n1Cc1cccs1` to `Cc1c2c(=O)n(-c3nc4ccccc4s3)nc-2cc(O)n1C1CC1`, the CC50 falls from 25.7 µM to 2.6 µM (9.9-fold).

From PubChem BioAssay AID504530 (Southern Research Specialized Biocontainment Screening …, 2011)
